Conditions: basic group

Going from `CN(C)c1cc[n+](C)c([O-])n1` to `CN(C)c1ccc(N)cc1`, the pKa rises from 4.2 to 6.37.

First: Nc1cccc([I+]c2ccccc2)c1
Second: CN1CCC2=C(C1)C(c1ccccc1)c1ccccc12 (centres undefined)
The pKa of the first is lower: 1.87 for the first, 8.29 for the second.

Going from `Nc1nc([S-])[nH+]c([O-])c1C1=CCCCC1` to `Nc1nc([S-])c2[nH]cnc2n1`, the pKa rises from 7.11 to 8.2.

Going from `O=C1C[C@H]2OCC=C3CN4CC[C@@]56c7ccccc7N1[C@@H]5[C@@H]2[C@@H]3C[C@@H]46` to `Cc1ccccc1NC(=O)CN1CCCCC1`, the pKa falls from 8.18 to 7.7.

Going from `O=[N+]([O-])c1cccc2nc3ccccc3c(NCCO)c12` to `C[NH+](C)CCCNc1ccnc2cccc([N+](=O)[O-])c12`, the pKa falls from 7.2 to 6.39.

Compared with `C1C[NH2+]CCSCCN1`, `C1CCCNCCC1` is higher in pKa: 4.16 for the first, 10.8 for the second.

Going from `NCc1ccccc1O` to `Oc1ccccc1CN1CCOCC1`, the pKa falls from 8.89 to 7.71.

Compared with `[O-]c1ncncc1O`, `c1ncc2cn[nH]c2n1` is lower in pKa: 7.48 for the first, 2.84 for the second.

First: Nc1nc(N)c2[nH]c(N)nc2n1
Second: N=C(N)Nc1nc(N)nc(NC(=N)N)n1
The pKa of the first is lower: 6.23 for the first, 9.8 for the second.

First: C1CNCCNCCN1
Second: O=CN1CCNCC1
The pKa of the first is higher: 10.6 for the first, 7.98 for the second.

Compared with `NCc1ccc(Cl)cc1[N+](=O)[O-]`, `Cc1cc([N+](=O)[O-])cc(C)c1N` is lower in pKa: 8.34 for the first, 0.98 for the second.

Compared with `CSc1cccc2ncccc12`, `Nc1ccc(O)c2ncccc12` is higher in pKa: 4.5 for the first, 5.67 for the second.

Going from `Cc1ccnc(N)c1` to `Nc1ccnc(-c2cccc(Cl)n2)c1`, the pKa rises from 7.48 to 7.7.

Compared with `C=CCc1ccc2cccnc2c1O`, `CCc1cnc2c(ccc3cccnc32)c1` is higher in pKa: 4.52 for the first, 4.98 for the second.

Going from `CN(C)c1ccc(C#N)cc1` to `CN(C)/C=N/c1ccccc1`, the pKa rises from 1.78 to 9.

Going from `Nc1ccc(C(=O)[O-])c2ncccc12` to `O=[N+]([O-])c1ccc(/C=N/c2ncccn2)cc1`, the pKa falls from 8.46 to 3.12.

Going from `CNc1cnc2ccccc2n1` to `Cn1nncc1Nc1ccccc1`, the pKa falls from 4.1 to 1.73.

Going from `C1CCN(N2CCCCC2)CC1` to `OC[C@H]1CCCN2CCCC[C@@H]12`, the pKa rises from 7.09 to 10.2.

First: N#Cc1cc(-c2ccccc2)nnc1NCCN1CCOCC1
Second: O=C(Cc1ccccc1Nc1c(Cl)cccc1Cl)OCCN1CCOCC1
The pKa of the first is lower: 6.5 for the first, 7.52 for the second.

Going from `CC(=O)c1ccncc1` to `CCc1ccncc1`, the pKa rises from 3.6 to 5.94.

Compared with `C[Si](C)(CN)c1ccccc1`, `CN(C)Cc1ccccc1` is lower in pKa: 10.4 for the first, 8.97 for the second.

Going from `Nc1nnn[nH]1` to `CCNc1ncnc2[nH]ncc12`, the pKa rises from 1.81 to 4.6.

First: NCCCCOc1c2ccccc2cc2ccccc12
Second: Nc1cc(/C=C/c2ccccc2)nc2ccccc12
The pKa of the first is higher: 9.94 for the first, 9.3 for the second.

First: O/N=C(/NO)c1ccccc1
Second: Oc1ccc(NCc2ccccc2)cc1
The pKa of the first is lower: 3.8 for the first, 5.17 for the second.

First: CCCN(CC)C(CC)C(=O)Nc1c(C)cccc1C (centres undefined)
Second: Cc1cccc(N)c1-c1c(C)cccc1[NH3+]
The pKa of the first is higher: 6.62 for the first, 2.1 for the second.

Going from `Nc1cc(/C=C/c2ccccc2)nc(/C=C/c2ccccc2)c1` to `Nc1c2c(ncn2Cc2ccccc2)nc[n+]1[O-]`, the pKa falls from 8.6 to 2.4.

Compared with `COCCNc1ccc(C)cc1`, `CCNCc1ccc(C)cc1` is higher in pKa: 4.64 for the first, 10 for the second.

Going from `CC(C)(C)CC(=O)n1ccnc1` to `C=CC(=O)NC(C)(C)CCN(C)C`, the pKa rises from 3.8 to 9.39.

Going from `CC/C=C/Cc1nc(C(=O)[O-])cn1[C@H](C(=O)[O-])C(C)(C)S` to `CC/C=C/CC1=NC(C(=O)[O-])[C@@H]2SC(C)(C)C(C(=O)[O-])N12` (some centres undefined), the pKa rises from 6.4 to 7.8.

First: C=CCC(C)(O)CN(CC)CC (centres undefined)
Second: CCN(CC)Cc1c([O-])c(Cl)cc(Cl)c1Cl
The pKa of the first is lower: 9.71 for the first, 11.8 for the second.

First: CCNC(N)=O
Second: CC(Br)(CN)[N+](=O)[O-] (centres undefined)
The pKa of the first is lower: 1.19 for the first, 6.15 for the second.

Going from `Cc1cc[nH]n1` to `Cc1ccn(-c2cccc[nH+]2)n1`, the pKa falls from 3.66 to -3.9.

Going from `C[C@@H]1CCN2CC[C@H](O)[C@H]12` to `COc1ccc2c3c1O[C@H]1[C@@H](O)C=C[C@H]4[C@@H]([C@H]2O)N(C)CC[C@@]341`, the pKa falls from 10.9 to 7.12.

First: CCC(O)CN(CC(C)O)C(C)(C)C (centres undefined)
Second: CCCCCCCCCCN(CC(C)O)CC(O)CC (centres undefined)
The pKa of the first is higher: 9.5 for the first, 6.7 for the second.

First: c1ccc2c(c1)CCNC2
Second: Clc1ccc(C2NCCS2)cc1 (centres undefined)
The pKa of the first is higher: 9.48 for the first, 5.01 for the second.

Going from `CC(C)N(c1ccccc1)C(C)C` to `CC(=O)C1C(=O)c2ccccc2C1=O`, the pKa falls from 6.19 to 2.88.

Compared with `c1cc(-c2cc[nH+]cc2)ccn1`, `O=[PH]([O-])C(NCc1ccncc1)c1ccccc1O` (centres undefined) is higher in pKa: 3.17 for the first, 8.05 for the second.

First: O=C([O-])[C@@H](NCCN[C@@H](C(=O)[O-])c1ccccc1[O-])c1ccccc1[O-]
Second: CCOCCn1c(CN2CCN(CCCCn3cc(C(=O)[O-])cn3)CC2)nc2ccccc21
The pKa of the first is higher: 11.9 for the first, 8 for the second.

First: [O-]c1cnccn1
Second: Cn1ncc2cncnc21
The pKa of the first is higher: 8.23 for the first, 2.5 for the second.

Compared with `NCCCNCCC[NH3+]`, `NCCCCCCN` is higher in pKa: 9.72 for the first, 11 for the second.

Going from `CNCCCNC` to `CCCCN(CC[S-])CCCC`, the pKa rises from 10.7 to 11.6.

Compared with `Nc1cc([NH3+])ccc1O`, `CSc1ccc(N)c(Cl)c1` is lower in pKa: 3.05 for the first, 2.56 for the second.

First: N#CCN
Second: [NH3+]CCc1ccncc1
The pKa of the first is higher: 5.37 for the first, 4.98 for the second.

Compared with `NNC(=O)CC([NH2+]CCO)C(=O)[O-]` (centres undefined), `O=C(NCCCN1CCOCC1)c1ccc(Cl)cc1` is higher in pKa: 2.13 for the first, 6.81 for the second.

Compound `CN1C[C@H](C(=O)[O-])C=C2c3cccc4[nH]cc(c34)C[C@@H]21` has a pKa of 8.49.

Reference: the pKa sets of Baltruschat and Czodrowski (2020)
